Experimental data as given in US20170216179A1, “COSMETIC AND/OR DERMATOLOGICAL COMPOSITION FOR COLOURING THE SKIN” (AFFICHEM, priority 2014, published 2017).

Tests used:
[1] = tested on: healthy murine melanocytes; experiment: Quantification of melanin synthesized by melanocytes; type: cell-based; details: cells treated 24 h; relative to control (=100%); FIG. 3
Method: Quantification of synthesized melanin by healthy murine melanocytes was performed according to the protocol described by Ando et al. (J. Lipid Res., 1999, 40, 1312).
Cells were seeded and treated for 24 h with the test product or the used vehicle (ethanol) and with, as a positive control, exposure to a dose of 20 mJ/cm^2 of ultraviolet radiation.
5 Million cells were isolated after centrifugation at 1500 rpm for 5 min at 4° C. The pellet was washed twice with PBS and then transferred into an Eppendorf tube and centrifuged at 5000 g for 5 min. The supernatant was removed. 200 μL of water and 1 mL of EtOH/ether (1/1) were added (melanin was insoluble in this mixture). After 15 min at room temperature, the totality was again centrifuged at 5000 g for 5 min; the supernatant was removed. The pellet was then taken up with 300 μL of a solution of NaOH(1M) in H2O/DMSO 90/10 and placed at 80° C. for one hour. Absorbance was measured at 470 nm. The amount of synthesized melanin was expressed based on the control (=100%).

TRP-2 = experiment: Gene expression by RT-qPCR, TRP-2; type: cell-based, murine; details: 1 μM, 24 h
Method: (§1) Cells were seeded and treated for 24 h with the molecules the action of which we want to study, that is to say here, with DDA (1 μM), on the one hand, and with L7DDA (0.1 or 1 or 2.5 or 5 μM) on the other. The results were compared with irradiated ultraviolet cells as in Example 6.
(§2) To quantify the expression of these genes, RNA extraction from cells was performed. Melanocytes were treated for 24 h with the active molecule or the control agent. 1 mL of Trizol® was added; after 5 min at room temperature, the totality was placed in an Eppendorf tube. 200 μL of CHCl3 were added at 4° C. The Eppendorf tubes were stirred manually, by turning them during 15 sec, left for 5 min at room temperature and then centrifuged at 16000 g at 4° C. for 10 min. The colourless aqueous phase was isolated. 500 μL of isopropanol (−20° C.) were added. The Eppendorf tubes were stirred manually, by turning them during 15 sec, left for 15 min at room temperature and then centrifuged at 16200 g at 4° C. for 10 min. The supernatant was removed. The pellet was washed with 1 mL of 75% ethanol (−20° C.). After centrifugation at 16000 g at 4° C. for 5 min, the supernatant was removed. 10 min after drying, the pellet was resuspended with 30 μL of RNAase-free water. The quantity and purity of RNA were estimated by spectrophotometry (230, 260 and 280 nm). […]

tyrosinase [2] = experiment: Gene expression by RT-qPCR, tyrosinase; type: cell-based, murine; details: 1 μM, 24 h
Method: as §1, §2

TRP-1 = experiment: Gene expression by RT-qPCR, TRP-1; type: cell-based, murine; details: 1 μM, 24 h
Method: as §1, §2

tyrosinase [3] = experiment: Stimulation of tyrosinase activity in melanocytes (L-DOPA oxidation); type: cell-based, murine; details: cells treated 24 h; with respect to the control (=100%); FIG. 4
Method: The study was conducted on healthy murine melanocytes. The results were compared with those obtained with a positive control subjected to a dose of 20 mJ/cm^2 of ultraviolet radiation. The cells were treated for 24 h with either the vehicle used (ethanol) or with the test product. The tyrosinase activity was quantified according to the protocol described by Ando et al. (J. Lipid Res. 1999, 40, 1312) as explained below.
5 Million cells were isolated after centrifugation at 1500 rpm for 5 min at 4° C. The pellet was washed twice with PBS and then transferred into an Eppendorf tube and centrifuged at 5000 g for 5 min. The supernatant was removed. 1 mL of 0.5% by mass sodium deoxycholate solution was added (cell lysis). After 15 min at 0° C., 3 mL of a solution of 0.1% by mass of L-DOPA in 0.1M phosphate buffer (pH 6.8) were added. The whole was placed at 37° C. for 10 min. Tyrosinase activity was spectrophotometrically analysed by following the oxidation of L-DOPA to DOPAchrome. Absorbance was measured at 475 nm. The tyrosinase activity was expressed based on the control (=100%), which determines the cell basal tyrosinase activity.

CC(C)CCC[C@@H](C)[C@H]1CC[C@H]2[C@@H]3C[C@@H](NCCc4c[nH]cn4)[C@@]4(O)C[C@@H](O)CC[C@]4(C)[C@H]3CC[C@]12C [DDA, 5α-hydroxy-6β-[2-(1H-imidazol-4-yl)ethylamino]cholestan-3β-ol]
synthesis of melanin [1]: increase
ΔΔCT (TRP-2) (TRP-2): 6.97
ΔΔCT (tyrosinase) (tyrosinase [2]): 6.09
ΔΔCT (TRP-1) (TRP-1): 13.45
tyrosinase activity in cells (tyrosinase [3]): increased
